Data taken from ChEMBL document CHEMBL1201862, “PubChem BioAssay data set” (2004).
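A five-concentration, 48-hour dose response in 96-well plates underlies each endpoint, interpolated linearly between surrounding concentrations. GI50 = concentration required for 50% inhibition of growth.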 The source made the active and inactive calls. Cut-off read from the data, not from the text of the source: active = GI50 up to about 1.1 µM and inactive = higher.

What was measured:
Assay in all cases: NCI-60 cell line screen, 48 h
DMS-114 = test system: DMS-114
HOP-18 = test system: HOP-18
XF498 = test system: XF498
SNB-78 = test system: SNB-78
RXF 631 = test system: RXF 631
DLD-1 = test system: DLD-1
DMS-273 = test system: DMS-273
LXFL 529 = test system: LXFL 529
KM-20L2 = test system: KM-20L2

Measured: GI50

Cc1ccccc1/N=C/c1ccc(N(CCC#N)S(=O)(=O)c2ccccc2)cc1
inactive: DMS-114 > 100 µM | HOP-18 > 100 µM | XF498 > 100 µM | SNB-78 > 100 µM | RXF 631 > 100 µM | DLD-1 > 100 µM | DMS-273 > 100 µM | LXFL 529 > 100 µM | KM-20L2 > 100 µM
